We go through one compound from patent US20030229140A1, “Herbal molecule as potential anti-leukemic drug” (priority 2002, published 2003).

For assay [1], the system named is Promonocytic cell line (U937). The assay can be described thus: Incubation of CD33+ promonocytic cell line U937 with CA/PCQ, viable cell count. It is filed as cell-based. As to conditions: for % Inhibition of cell growth (After 3 days of incubation): 2×10^5 cells per ml per well. The procedure:
Culture of Promonocytic cell line U937. […] This cell line is CD33^+. Incubation of CD33^+ cell line U937 with CA. […] Cells were then washed and counted for viability.

In assay [2] the test system is Erythroleukemic cell line (K562). The assay can be described thus: Incubation of CD33- erythroleukemic cell line K562 with CA/PCQ, viable cell count. It is filed as cell-based. As to conditions: for % Inhibition of cell growth (After 3 days of incubation): 2×10^5 cells per ml per well. The text has this: This cell line was collected from American Type Culture Collection (ATCC), VA, USA. This cell line is […]. […] Cells were then washed and counted for viability.

Assay [3] relates to CML patient's PBMC. The assay can be described thus: Incubation of CML patient's PBMC (leukemic cells) with CA/PCQ, viable cell count. It counts as cell-based, human. As to conditions: for % Inhibition of cell growth (After 3 days of incubation): CML patient's leukemic cells, 2×10^5 cells per ml per well. The procedure: Whole blood (10 ml each) was drawn from previously diagnosed myeloid leukemic patients, one patient was diagnosed as AML and the other one was diagnosed as CML. Mononuclear cells were separated by Ficoll/hypaque density gradient centrifugation. […] Cells were then washed and counted for viability.

For assay [4], the system named is Normal PBMC. The assay can be described thus: Growth inhibition of normal individuals' PBMC by CA/PCQ. It counts as cell-based, human. As to conditions: Normal individual's PBMC, 3 days, 2×10^5 cells per ml per well.
Text: Preparation of peripheral blood mononuclear cells (PBMC) from normal individuals. Whole blood was collected and mononuclear cells were separated by Ficoll/Hypaque density gradient centrifugation.
In assay [5] the test system is CD33+ myeloid cells. To be noted: earlier patent filing; cited from earlier work.
Assay [6] deals with leukemic cells. The assay can be described thus: Biological activity (destruction of leukemic cells) of Piper betel fractions and HPLC peaks. It is filed as cell-based. As to conditions: fractions, zones and HPLC peaks of Piper betel leaf extract. The procedure: Collected material was examined for biological activity i.e. destruction of leukemic cells. […] 10 gm of above-mentioned material was loaded on Sephadex LH-20 column and chromatographed with water, water-methanol (1:1) and methanol as eluent. Three different fractions thus obtained from three different solvent systems were separately checked for biological activity. […] The column was equilibrated with methanol-water-acetic acid (23:76:1), flow rate was maintained at 1.0 ml per min and peaks were identified at 280 nm. According to the retention time (RE) different peaks could be divided into three zones, ZA/ZB and ZC (FIG. 1). ZA had 4 major peaks whereas ZB had very small to moderate 10 peaks and ZC had two distinct peaks. It was convenient to observe biological activity of three zones AA, ZB and ZC, which were separately tested on leukemia cells for destructive activity.

Regarding `O=C(C=Cc1ccc(O)cc1)OC1CC(O)(C(=O)O)CC(O)C1O` (stereo not shown) [PCQ, 3-o-p-Coumaryl quinic acid], the “% Inhibition of cell growth (After 3 days of incubation)” value in assay [1] (U937, 25.0 μg/ml) worked out at 2.08%; in assay [1] (U937, 50.0 μg/ml) it was 4.17%; in assay [2] (K562, 25.0 μg/ml) it was 4.00%; in assay [2] (K562, 50.0 μg/ml), 8.00%; in assay [3] (25.0 μg/ml), 2.38%; in assay [3] (50.0 μg/ml) it was 4.76%. Moreover, the “% Inhibition of cell growth (After 3 days of incubation)” value in assay [4] (25.0 μg/ml) is given as 0.00%; in assay [4] (50.0 μg/ml), 1.67%. The “growth inhibition of leukemic cell lines” value in assay [1] (U937, 2×10^6/ml/well, 25 μg/ml of PCQ) is reported as “up to 2.08%”; in assay [2] (K562, 2×10^6/ml/well, 25 μg/ml), “up to 4%”; in assay [3] (CML leukemic cells, 2×10^6/ml/well, 25 μg/ml of PCQ) it was “up to 2.38%”. Further, in assay [5], the “CD33+ myeloid cells destruction (in words)” value is recorded as “showed CD33+myeloid cells destruction”. For the same compound, the “biological activity i.e. destruction of leukemic cells (in words)” value in assay [6] was “demonstrated considerable activity”.
